Data published in patent US10390532B2, “Insecticide composition including thiamethoxam and a synergistic agent” (priority 2015, dated 2019).
Read-outs that look alike come from different tables or passages of the source.

What was measured:
Type in all cases: cell-based, Periplaneta americana
[1] = test system: cockroach Dorsal Unpaired Median (DUM) neurons; details: for origin of the intracellular calcium rise: with caffeine, omega-conotoxin, pirenzepine
[2] = test system: cockroach Dorsal Unpaired Median (DUM) neurons; assay: Whole-cell patch-clamp, current-clamp: DUM neuron spontaneous electrical activity; details: 10^-8 M
Description: (§1) Experiments were carried out on cockroach Dorsal Unpaired Median (DUM) neurons. Cockroach neuronal preparations are commonly used as biomedical models for vertebrates and invertebrates and DUM neurons are, furthermore, electrophysiologically and pharmacologically well characterized since most of the biophysical and pharmacological properties of ionic currents and receptors underlying and modulating their spontaneous action potentials have been established by using the well-known patch-clamp technique.
(§2) Adult male cockroaches, Periplaneta americana (see FIG. 1), are taken from our laboratory colonies, which are maintained under standard conditions (29° C., photoperiod of 12 h light/12 h dark). Animals are immobilized dorsal-side up on a dissection dish. The dorsal cuticle, gut and some dorso-longitudinal muscles are removed to allow access to the ventral nerve cord. The abdominal nerve cord and its terminal abdominal ganglion (TAG), carefully dissected under a binocular microscope, are placed in normal saline. Animal care and handling procedures are in accordance with French institutional and national health guidelines. […]
(§3) Electrical activity and neonicotinoïd-induced inward currents are recorded using the patch clamp technique in the whole-cell recording configuration under current-clamp and voltage-clamp mode, respectively. […] Signals are recorded with an Axopatch 200A amplifier. […]

[3] = test system: cockroach Dorsal Unpaired Median (DUM) neurons; assay: Whole-cell patch-clamp, voltage-clamp: thiamethoxam-induced inward current in DUM neurons; details: holding potential -50 mV
Description: as §1, §2, §3

[4] = test system: cockroach Dorsal Unpaired Median (DUM) neurons; assay: Voltage-clamp thiamethoxam-induced current in DUM neurons after pretreatment with acetylcholine
Description: Electrical activity and neonicotinoïd-induced inward currents are recorded using the patch clamp technique in the whole-cell recording configuration under current-clamp and voltage-clamp mode, respectively. Patch-clamp electrodes are pulled from borosilicate glass capillary tubes (GC150T-10) using a P-97 model puller. Patch pipettes have resistances ranging from 1 to 1.2 MΩ when filled with internal pipette solution. The liquid junction potential between extracellular and intracellular solutions is always corrected before the formation of a giga Ohm seal (>3GΩ). Signals are recorded with an Axopatch 200A amplifier. […] Under voltage-clamp conditions, DUM neuron somata are voltage-clamped at a steady state holding potential of −50 mV to measure the effects of thiamethoxam applied alone and after pretreatment with IR3535® (10^−8 M). Experiments are carried out at room temperature.
Acetylcholine at a concentration of 10^−3M has been applied to DUM neurons during one second, three minutes before testing thiamethoxam at 10^−7M, 10^−6M and 10^−5M on DUM neurons under the same protocol as example 3.

CCCCN(CCC(=O)OCC)C(C)=O [IR3535®, 3-[N-Butyl-N-acetyl]-aminopropionic acid, ethyl ester]
lower concentration which produces a significant elevation of intracellular calcium concentration ([1]; DUM neurons): 10^−8 M | concentration at which the zone I intracellular calcium increase reaches a maximum ([1]; DUM neurons, zone I): 10^−8 M | concentration producing the maximum effect on intracellular calcium (zone III) ([1]; DUM neurons, zone III): 3.10^−5 M | origin of the intracellular calcium rise ([1]; IR3535 at 10^-8 M): results from extracellular calcium through plasma membrane voltage-dependent calcium channels via M1/M3 mAChR sub-type modulation | origin of the intracellular calcium rise ([1]; higher concentrations of IR3535 (10^-5 M)): both extracellular calcium and calcium released from internal stores are involved | effect on membrane potential and spontaneous action potential discharge frequency [2]: induces a significant membrane depolarization associated with an increase of the spontaneous action potential discharge frequency

CCN(CC)C(=O)c1cccc(C)c1 [DEET, N,N-diethyl-3-methylbenzamide]
effect on intracellular calcium concentration ([1]; DEET at concentrations higher than 10^-7 M): an important decrease of the intracellular calcium concentration | ratio of emitted fluorescence (340 nm/380 nm) ([1]; DEET between 3.10-8 M and 3.10-7 M): above 0.6 | concentration at which the intracellular calcium elevation reaches a maximum ([1]; DEET, DUM neurons): 10^−7 M | maximum value of ratio of emitted fluorescence (340 nm/380 nm) ([1]; DEET, maximum at 10^-7 M): 0.7

CN1COCN(Cc2cnc(Cl)s2)/C1=N\[N+](=O)[O-] [thiamethoxam]
mean inward current amplitude relative to thiamethoxam applied alone ([3]; thiamethoxam 10^-6 M after pretreatment with IR3535 10^-8 M): about 6 fold | induced inward current amplitude ([3]; thiamethoxam 10^-6 M alone, n=3-4): induces an inward current with small amplitudes | current amplitude, rank among tested concentrations ([4]; thiamethoxam 10^-6 M after acetylcholine 10^-3 M): lowest value | induced current ([4]; thiamethoxam 10^-7, 10^-6, 10^-5 M after acetylcholine 10^-3 M (1 s, 3 min before)): induces a current | current amplitude, rank among tested concentrations ([4]; thiamethoxam 10^-7 M after acetylcholine 10^-3 M): highest value | induced current ([4]; thiamethoxam alone, no acetylcholine pretreatment): no current has been recorded
